Several values for one entry are separate records, joined by “and”; a condition that tells them apart may be missing. Equal values may be shown once. Numbers after ± are expanded uncertainties.
How the values were obtained:
[1] = refractive index (Na D-line) (dimensionless); details: 298.15 K; 101.33 kPa; Liquid; Standard Abbe refractometry
[2] = molar heat capacity at constant pressure; details: 101.33 kPa, Liquid, Small sample (50 mg) DSC
[3] = Liquid; for mass density: Vibrating tube method; for speed of sound: Pulse-echo method

In the case of `CC(O)CC(C)(C)O` (centres undefined) [2-methyl-2,4-pentanediol], the refractive index [1] is reported as 1.4258 ± 0.0005, the “molar heat capacity at constant pressure” value ([2]; 284.16 K) is reported as 250.63 ± 4.3 J/K/mol and the “molar heat capacity at constant pressure” value ([2]; 288.14 K) is reported as 254.33 ± 4.4 J/K/mol. For the same molecule, the “molar heat capacity at constant pressure” value ([2]; 293.14 K) was 258.4 ± 4.5 J/K/mol, the “molar heat capacity at constant pressure” value ([2]; 298.16 K) was 262.4 ± 4.5 J/K/mol and the “molar heat capacity at constant pressure” value ([2]; 303.15 K) was 266.42 ± 4.6 J/K/mol. The “molar heat capacity at constant pressure” value ([2]; 308.15 K) was 270.35 ± 4.7 J/K/mol, the “molar heat capacity at constant pressure” value ([2]; 313.15 K) was 274.7 ± 4.8 J/K/mol and the “molar heat capacity at constant pressure” value ([2]; 318.15 K) was 279.12 ± 4.8 J/K/mol. The “molar heat capacity at constant pressure” value ([2]; 323.15 K) was 283.62 ± 4.9 J/K/mol, the “molar heat capacity at constant pressure” value ([2]; 328.15 K) was 288.35 ± 5 J/K/mol and the “molar heat capacity at constant pressure” value ([2]; 333.15 K) was 293.21 ± 5.1 J/K/mol. The “molar heat capacity at constant pressure” value ([2]; 338.15 K) was 298.13 ± 5.2 J/K/mol, the “molar heat capacity at constant pressure” value ([2]; 343.15 K) was 303.01 ± 5.2 J/K/mol and the “molar heat capacity at constant pressure” value ([2]; 348.15 K) was 307.95 ± 5.3 J/K/mol. For the same molecule, the “molar heat capacity at constant pressure” value ([2]; 353.14 K) was 314.8 ± 5.5 J/K/mol, the “molar heat capacity at constant pressure” value ([2]; 358.16 K) was 318.39 ± 5.5 J/K/mol and the mass density ([3]; 278.15 K, 101.33 kPa) was 932.344 ± 0.24 kg/m3. For the same molecule, the mass density ([3]; 283.15 K, 101.33 kPa) was 928.795 ± 0.24 kg/m3, the speed of sound ([3]; 288.14 K, 100 kPa) was 1326.5 ± 2.3 m/s and the speed of sound ([3]; 288.15 K, 101.33 kPa) was 1326.4 ± 1.6 m/s. It also gave a mass density ([3]; 288.15 K, 101.33 kPa) of 925.238 ± 0.24 kg/m3, a speed of sound ([3]; 291.11 K, 100 kPa) of 1317.1 ± 2.3 m/s and a speed of sound ([3]; 292.85 K, 101320 kPa) of 1675.8 ± 2.5 m/s. It also gave a speed of sound ([3]; 292.86 K, 15200 kPa) of 1382.2 ± 2.3 m/s, a speed of sound ([3]; 292.86 K, 30390 kPa) of 1443.5 ± 2.4 m/s and a speed of sound ([3]; 292.86 K, 45590 kPa) of 1499.7 ± 2.4 m/s. It also gave a speed of sound ([3]; 292.86 K, 60790 kPa) of 1551.7 ± 2.4 m/s, a speed of sound ([3]; 292.86 K, 75990 kPa) of 1600.9 ± 2.5 m/s and a speed of sound ([3]; 292.86 K, 91180 kPa) of 1646.9 ± 2.5 m/s. The speed of sound ([3]; 293.14 K, 100 kPa) was 1310.7 ± 2.3 m/s, the speed of sound ([3]; 293.15 K, 101.33 kPa) was 1310.7 ± 1.6 m/s and the mass density ([3]; 293.15 K, 101.33 kPa) was 921.71 ± 0.24 kg/m3 and 921.676 ± 0.24 kg/m3. For the same molecule, the speed of sound ([3]; 298.15 K, 100 kPa) was 1295.2 ± 2.3 m/s, the speed of sound ([3]; 298.15 K, 101.33 kPa) was 1295.2 ± 1.6 m/s and the mass density ([3]; 298.15 K, 101.33 kPa) was 918.16 ± 0.24 kg/m3 and 918.11 ± 0.24 kg/m3. For the same molecule, the speed of sound ([3]; 298.15 K, 15200 kPa) was 1366.7 ± 2.4 m/s, the speed of sound ([3]; 298.15 K, 30390 kPa) was 1428.8 ± 2.4 m/s and the speed of sound ([3]; 298.15 K, 45590 kPa) was 1485.4 ± 2.4 m/s. For the same molecule, the speed of sound ([3]; 298.15 K, 60790 kPa) was 1538.1 ± 2.4 m/s, the speed of sound ([3]; 298.15 K, 75990 kPa) was 1587.3 ± 2.5 m/s and the speed of sound ([3]; 298.15 K, 91180 kPa) was 1634 ± 2.5 m/s. For the same molecule, the speed of sound ([3]; 298.15 K, 101320 kPa) was 1663.4 ± 2.5 m/s, the speed of sound ([3]; 301.02 K, 100 kPa) was 1286.3 ± 2.3 m/s and the speed of sound ([3]; 303.13 K, 30390 kPa) was 1414.6 ± 2.4 m/s. The speed of sound ([3]; 303.14 K, 15200 kPa) was 1351.4 ± 2.4 m/s, the speed of sound ([3]; 303.14 K, 45590 kPa) was 1472.1 ± 2.4 m/s and the speed of sound ([3]; 303.14 K, 60790 kPa) was 1525.2 ± 2.4 m/s. It also gave a speed of sound ([3]; 303.14 K, 75990 kPa) of 1575.1 ± 2.5 m/s, a speed of sound ([3]; 303.14 K, 91180 kPa) of 1622.1 ± 2.5 m/s and a speed of sound ([3]; 303.14 K, 101320 kPa) of 1651.8 ± 2.5 m/s. It also gave a speed of sound ([3]; 303.15 K, 100 kPa) of 1279.9 ± 2.3 m/s, a speed of sound ([3]; 303.15 K, 101.33 kPa) of 1279.8 ± 1.6 m/s and a mass density ([3]; 303.15 K, 101.33 kPa) of 914.59 ± 0.24 kg/m3. For the same molecule, the mass density ([3]; 303.16 K, 101.33 kPa) was 914.548 ± 0.24 kg/m3, the speed of sound ([3]; 308.13 K, 15200 kPa) was 1336.9 ± 2.4 m/s and the speed of sound ([3]; 308.13 K, 30390 kPa) was 1400.8 ± 2.4 m/s. It also gave a speed of sound ([3]; 308.13 K, 45590 kPa) of 1459.2 ± 2.4 m/s, a speed of sound ([3]; 308.13 K, 60790 kPa) of 1513 ± 2.4 m/s and a speed of sound ([3]; 308.13 K, 75990 kPa) of 1563.1 ± 2.5 m/s. The speed of sound ([3]; 308.13 K, 91180 kPa) was 1610.8 ± 2.5 m/s, the speed of sound ([3]; 308.13 K, 101320 kPa) was 1640.8 ± 2.5 m/s and the speed of sound ([3]; 308.15 K, 100 kPa) was 1264.7 ± 2.3 m/s. The speed of sound ([3]; 308.15 K, 101.33 kPa) was 1264.7 ± 1.6 m/s, the mass density ([3]; 308.15 K, 101.33 kPa) was 910.981 ± 0.24 kg/m3 and 911.02 ± 0.24 kg/m3 and the speed of sound ([3]; 308.18 K, 100 kPa) was 1264.6 ± 2.3 m/s. For the same molecule, the speed of sound ([3]; 313.1 K, 15200 kPa) was 1323 ± 2.3 m/s, the speed of sound ([3]; 313.1 K, 30390 kPa) was 1387.6 ± 2.4 m/s and the speed of sound ([3]; 313.1 K, 45590 kPa) was 1446.5 ± 2.4 m/s. For the same molecule, the speed of sound ([3]; 313.1 K, 60790 kPa) was 1501 ± 2.4 m/s, the speed of sound ([3]; 313.1 K, 75990 kPa) was 1551.6 ± 2.5 m/s and the speed of sound ([3]; 313.1 K, 101320 kPa) was 1629.9 ± 2.5 m/s. The speed of sound ([3]; 313.11 K, 91180 kPa) was 1599.6 ± 2.5 m/s, the speed of sound ([3]; 313.15 K, 101.33 kPa) was 1249.6 ± 1.6 m/s and the mass density ([3]; 313.15 K, 101.33 kPa) was 907.43 ± 0.24 kg/m3 and 907.411 ± 0.24 kg/m3. The speed of sound ([3]; 313.16 K, 100 kPa) was 1249.6 ± 2.3 m/s, the speed of sound ([3]; 318.15 K, 101.33 kPa) was 1234.7 ± 1.6 m/s and the mass density ([3]; 318.15 K, 101.33 kPa) was 903.84 ± 0.24 kg/m3 and 903.834 ± 0.24 kg/m3. The speed of sound ([3]; 318.19 K, 100 kPa) was 1234.6 ± 2.3 m/s, the speed of sound ([3]; 318.29 K, 15200 kPa) was 1308.8 ± 2.4 m/s and the speed of sound ([3]; 318.29 K, 30390 kPa) was 1374.5 ± 2.4 m/s. The speed of sound ([3]; 318.29 K, 45590 kPa) was 1434.2 ± 2.4 m/s, the speed of sound ([3]; 318.29 K, 60790 kPa) was 1489.3 ± 2.4 m/s and the speed of sound ([3]; 318.29 K, 75990 kPa) was 1539.5 ± 2.5 m/s. For the same molecule, the speed of sound ([3]; 318.29 K, 91180 kPa) was 1588.5 ± 2.5 m/s, the speed of sound ([3]; 318.29 K, 101320 kPa) was 1619.2 ± 2.5 m/s and the mass density ([3]; 323.15 K, 101.33 kPa) was 900.247 ± 0.24 kg/m3. For the same molecule, the mass density ([3]; 328.16 K, 101.33 kPa) was 896.647 ± 0.24 kg/m3, the mass density ([3]; 333.16 K, 101.33 kPa) was 893.033 ± 0.24 kg/m3 and the mass density ([3]; 338.15 K, 101.33 kPa) was 889.4 ± 0.24 kg/m3. For the same molecule, the mass density ([3]; 343.15 K, 101.33 kPa) was 885.746 ± 0.24 kg/m3, the mass density ([3]; 348.15 K, 101.33 kPa) was 882.068 ± 0.25 kg/m3 and the mass density ([3]; 353.15 K, 101.33 kPa) was 878.362 ± 0.25 kg/m3. For the same molecule, the mass density ([3]; 358.15 K, 101.33 kPa) was 874.626 ± 0.25 kg/m3.
